Test results as given in the supplement of paper PMC10307832.

Assays:
Assay in all cases: relative viability (nuclei count vs DMSO), 5 days (fraction); higher = more cells survive
Doxorubicin + Linsitinib = compound: COc1cccc2c1C(=O)c1c(O)c3c(c(O)c1C2=O)C[C@@](O)(C(=O)CO)C[C@@H]3O[C@H]1C[C@H](N)[C@H](O)[C@H](C)O1 [Doxorubicin] + C[C@]1(O)C[C@@H](c2nc(-c3ccc4ccc(-c5ccccc5)nc4c3)c3c(N)nccn32)C1 [Linsitinib] (partner 1 µM)
Method in brief: (§1)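 Dosing by pin tool came one day after lung cancer cell lines were seeded in 1536-well plates, using either one drug or a fixed anchor-drug dose plus five library-drug doses (not always all listed) in √10 steps. After 5 days, nuclei were counted on 4× images. Relative viability is treated-well nuclei count divided by vehicle-well nuclei count, and values are medians of duplicate plates.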

BAY61-3606 + Decitabine = compound: COC1=C(C=C(C=C1)C2=CC3=NC=CN3C(=N2)NC4=C(C=CC=N4)C(=O)N)OC [BAY61-3606] + Nc1ncn([C@H]2C[C@H](O)[C@@H](CO)O2)c(=O)n1 [Decitabine] (partner 2 µM)
Method in brief: as §1

BAY61-3606 + Phenformin = compound: COC1=C(C=C(C=C1)C2=CC3=NC=CN3C(=N2)NC4=C(C=CC=N4)C(=O)N)OC [BAY61-3606] + N=C(N)NC(=N)NCCc1ccccc1 [Phenformin] (partner 250 µM)
Method in brief: as §1

BAY61-3606 + Luminespib = compound: COC1=C(C=C(C=C1)C2=CC3=NC=CN3C(=N2)NC4=C(C=CC=N4)C(=O)N)OC [BAY61-3606] + CCNC(=O)c1noc(-c2cc(C(C)C)c(O)cc2O)c1-c1ccc(CN2CCOCC2)cc1 [Luminespib] (partner 0.01 µM)
Method in brief: as §1

Row | Cell Line | relative viability (Doxorubicin + Linsitinib; first compound 0.001 µM) | relative viability (Doxorubicin + Linsitinib; first compound 0.003162 µM) | relative viability (Doxorubicin + Linsitinib; first compound 0.01 µM) | relative viability (Doxorubicin + Linsitinib; first compound 0.03162 µM) | relative viability (Doxorubicin + Linsitinib; first compound 0.1 µM) | relative viability (BAY61-3606 + Decitabine; first compound 0.06325 µM) | relative viability (BAY61-3606 + Decitabine; first compound 0.2 µM) | relative viability (BAY61-3606 + Decitabine; first compound 0.6325 µM) | relative viability (BAY61-3606 + Decitabine; first compound 2 µM) | relative viability (BAY61-3606 + Phenformin; first compound 0.02 µM) | relative viability (BAY61-3606 + Phenformin; first compound 0.06325 µM) | relative viability (BAY61-3606 + Phenformin; first compound 0.2 µM) | relative viability (BAY61-3606 + Phenformin; first compound 0.6325 µM) | relative viability (BAY61-3606 + Phenformin; first compound 2 µM) | relative viability (BAY61-3606 + Luminespib; first compound 0.02 µM) | relative viability (BAY61-3606 + Luminespib; first compound 0.06325 µM) | relative viability (BAY61-3606 + Luminespib; first compound 0.2 µM) | relative viability (BAY61-3606 + Luminespib; first compound 0.6325 µM) | relative viability (BAY61-3606 + Luminespib; first compound 2 µM) | relative viability (BAY61-3606 + Decitabine; first compound 0.02 µM)
1 | HOP-62 | 0.954 | 1.04 | 1.11 | 1.17 | 1.04 | 0.2 | 0.228 | 0.266 | 0.22 | 0.629 | 0.645 | 0.635 | 0.667 | 0.534 | 0.919 | 1.07 | 0.83 | 0.933 | 0.651 | –
2 | NCI-H838 | 1.04 | 1.04 | 0.952 | 0.906 | 0.446 | 0.508 | 0.47 | 0.454 | 0.393 | 0.628 | 0.489 | 0.621 | 0.388 | 0.277 | 0.368 | 0.24 | 0.347 | 0.259 | 0.28 | 0.448
3 | NCI-H2085 | 1.03 | 0.927 | 0.815 | 0.716 | 0.82 | 0.528 | 0.555 | 0.531 | 0.53 | 0.793 | 0.755 | 0.717 | 0.757 | 0.64 | 0.416 | 0.469 | 0.486 | 0.443 | 0.412 | 0.531
4 | NCI-H661 | 0.641 | 0.636 | 0.551 | 0.484 | 0.547 | 0.546 | 0.546 | 0.573 | 0.534 | 0.271 | 0.283 | 0.28 | 0.254 | 0.248 | 0.902 | 0.917 | 0.867 | 0.879 | 0.823 | 0.594
5 | NCI-H23 | – | 0.539 | 0.683 | 0.473 | 0.638 | 0.329 | 0.363 | 0.346 | 0.383 | 0.85 | 0.796 | 0.764 | 0.78 | 0.714 | 0.212 | 0.213 | 0.214 | 0.232 | 0.207 | 0.393
6 | A-427 | 1.11 | 1.15 | 1.11 | 1.17 | 1.16 | 0.561 | 0.565 | 0.611 | 0.622 | 0.417 | 0.235 | 0.287 | 0.315 | 0.257 | 0.842 | 0.928 | 0.86 | 0.965 | 0.808 | 0.579
7 | NCI-H647 | 0.977 | 1.17 | 0.952 | 0.441 | 0.435 | 0.433 | 0.391 | 0.416 | 0.256 | 0.562 | 0.294 | 0.496 | 0.393 | 0.29 | 0.205 | 0.16 | 0.21 | 0.221 | 0.0962 | 0.382
8 | NCI-H1734 | 0.945 | 0.922 | 0.826 | 0.731 | 0.871 | 0.512 | 0.503 | 0.504 | 0.388 | 0.446 | 0.338 | 0.288 | 0.354 | 0.244 | 0.26 | 0.179 | 0.188 | 0.278 | 0.167 | 0.551
9 | NCI-H1915 | 1.14 | 1.03 | 1.08 | 1.05 | 1.1 | 0.261 | 0.265 | 0.253 | 0.23 | 0.369 | 0.376 | 0.328 | 0.366 | 0.261 | 0.777 | 0.86 | 0.686 | 0.731 | 0.369 | 0.258
10 | NCI-H441 | 0.697 | 0.718 | 0.513 | 0.281 | 0.513 | 0.223 | 0.242 | 0.256 | 0.253 | 0.818 | 0.934 | 0.782 | 0.972 | 0.652 | 0.258 | 0.31 | 0.369 | 0.335 | 0.302 | 0.249
11 | EMC-BAC-2 | 0.797 | 0.864 | 0.84 | 0.854 | 0.776 | 1.06 | 1.04 | 1.19 | 0.986 | 0.582 | 0.509 | 0.485 | 0.521 | 0.444 | 1.21 | 1.15 | 1.17 | 1.25 | 0.904 | 1.07
12 | LK-2 | 0.524 | 0.742 | 0.409 | 0.483 | 0.627 | 0.287 | 0.362 | 0.28 | 0.342 | 0.389 | 0.307 | 0.368 | 0.463 | 0.221 | 0.168 | 0.163 | 0.185 | 0.185 | 0.208 | 0.319
13 | NCI-H460 | 0.714 | 0.687 | 0.385 | 0.0347 | 0.0076 | 0.572 | 0.43 | 0.448 | 0.382 | 0.549 | 0.48 | 0.494 | 0.493 | 0.106 | 0.0381 | 0.0387 | 0.0289 | 0.0296 | 0.0322 | 0.508
14 | NCI-H1993 | 0.711 | 0.751 | 0.741 | 0.659 | 0.733 | 0.622 | 0.542 | 0.536 | 0.601 | 0.547 | 0.502 | 0.545 | 0.493 | 0.543 | 0.947 | 0.736 | 0.873 | 0.901 | 0.527 | 0.632
15 | LXF-289 | 0.997 | 0.968 | 0.946 | 1.04 | 0.993 | 0.402 | 0.411 | 0.396 | 0.405 | 0.494 | 0.526 | 0.462 | 0.549 | 0.491 | 0.772 | 0.578 | 0.648 | 0.551 | 0.561 | 0.399
16 | NCI-H596 | 1.01 | 1.12 | 1.09 | 1.01 | 0.992 | 0.967 | 1.14 | 0.965 | 1.08 | 0.803 | 0.806 | 0.793 | 0.793 | 0.737 | 0.941 | 1.14 | 0.929 | 1.3 | 0.62 | 1.06
